According to paper PMC10267561, “PI3P-dependent regulation of cell size and autophagy by phosphatidylinositol 5-phosphate 4-kinase” (Life Science Alliance, 2023):

Biological target: T1, Mtm (Mtm^WT::GFP) (Drosophila melanogaster, UniProt Q9VMI9)
T1 construct: C-terminal GFP tag, overexpressed (da-Gal4) in third instar larvae, whole larval lysate; ~100 kD
T1 sequence (Q9VMI9 1-619): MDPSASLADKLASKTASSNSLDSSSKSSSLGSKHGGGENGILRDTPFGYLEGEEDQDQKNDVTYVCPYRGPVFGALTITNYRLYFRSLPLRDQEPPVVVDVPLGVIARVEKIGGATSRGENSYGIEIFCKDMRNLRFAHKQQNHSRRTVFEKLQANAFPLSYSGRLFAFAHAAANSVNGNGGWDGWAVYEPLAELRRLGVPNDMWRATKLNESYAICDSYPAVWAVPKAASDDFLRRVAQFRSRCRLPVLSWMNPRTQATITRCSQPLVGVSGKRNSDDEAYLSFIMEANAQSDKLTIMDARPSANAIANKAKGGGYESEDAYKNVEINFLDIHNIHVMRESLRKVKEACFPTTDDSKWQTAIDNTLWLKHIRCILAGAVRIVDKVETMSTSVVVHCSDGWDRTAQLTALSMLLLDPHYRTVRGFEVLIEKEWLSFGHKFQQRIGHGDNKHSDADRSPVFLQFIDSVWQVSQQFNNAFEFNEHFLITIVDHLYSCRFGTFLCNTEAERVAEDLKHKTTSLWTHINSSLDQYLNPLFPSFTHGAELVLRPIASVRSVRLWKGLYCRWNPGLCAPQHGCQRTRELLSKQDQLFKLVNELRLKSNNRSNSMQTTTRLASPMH
Test: LC-MS/MS in vitro 3-phosphatase assay, overexpressing larval lysate vs control lysate
Assay type: biochemical
Details: pH 7.4 lipid suspension, phosphatidylserine, 15 min, 37 °C; 10 ug lysate protein

In the case of `CCCCC/C=C\C/C=C\C/C=C\C/C=C\CCCC(=O)O[C@H](COC(=O)CCCCCCCCCCCCCCCC)COP(=O)(O)O[C@@H]1[C@H](O)[C@H](OP(=O)(O)O)[C@@H](O)[C@H](O)[C@H]1O` [17:0 20:4 PI3P], the “3-phosphatase activity, overexpressing vs control lysate” value was “lysates with Mtm overexpression showed significantly higher PI3P 3-phosphatase activity compared with control lysates”.
